{
  "source": "patent US5571799A",
  "about": "“(2'-5') oligoadenylate analogues useful as inhibitors of host-v5.-graft response” (Basco, Ltd., priority 1994, dated 1996)",
  "key": {"T-helpers": {"test_system": "T-helpers", "assay": "Immune system of monkeys: T-helpers, flow cytofluorografic analysis", "type": "in vivo, Macaque Rh. monkeys", "description": "(§1) The experiments were performed on 4 year-old Macaque Rh. monkeys. The levels of the principal subpopulations of T-lymphocytes, IgA, IgG, IgM and the amount of α- and γ-interferon and interleukin II after administration (2'-5')olygoadenylate and its analogies at the concentration of 50 and 25 μg/kg of the body weight was investigated.\n(§2) FLOW CYTOFLUOROGRAFIC ANALYSIS OF LYMPHOCYTE SUBSETS\n(§3) Blood samples (100 μl of whole blood) were placed into a 12×17 tube. To these cells 20 μl of purified monoclonal antibodies were added with specificity for human cytotoxic/suppressor cells anti-Leu-2a (CD8), human helper/inducer anti-Leu-3a (CD4) and FITC conjugated monoclonal antibodies with specificity for natural killer cells-anti-Leu11c (CD16) (Becton Dickinson, San Jose). After 30 minutes incubation on ice, the cells were washed once and 20 μl of goat-antimouse chain phycoerythrin (Sigma P1286) conjugate were added to the tube with anti-Leu-2a and anti-Leu-3a monoclonal antibodies.\n(§4) After erythrocyte lysing with FACS lysing solution (Becton Dickinson, San Jose) the cells were analyzed on FACScan flow cytometer (Becton Dickinson, San Jose) with scatter gate set on lymphocyte fraction."}, "T-suppressors [1]": {"test_system": "T-suppressors", "assay": "Immune system of monkeys: T-suppressors, flow cytofluorografic analysis", "type": "in vivo, Macaque Rh. monkeys", "settings": "for T-suppressor: single IV 25 μg/kg; for T-suppressors: single IV 50 μg/kg", "description": "Immunosuppressive activity of the prototype 2'-5'A3 and two analogues (2'-5')A2 Ar-epoxy and (2'-5')A2 A^l-epoxy were investigated in monkeys. The experiments were performed on 4 year-old Macaque Rh. monkeys. The levels of the principal subpopulations of T-lymphocytes, IgA, IgG, IgM and the amount of α- and γ-interferon and interleukin II after administration (2'-5')olygoadenylate and its analogies at the concentration of 50 and 25 μg/kg of the body weight was investigated.\nas §2, §3, §4"}, "T-suppressors [2]": {"test_system": "T-suppressors", "assay": "T-suppressors in monkeys after kidney transplantation", "type": "in vivo, Macaque Rh. monkeys", "settings": "for T-suppress: 50 μg/kg IV, 2 days pre-op. 44", "description": "as §2, §3, §4\n(§5) The experiments were performed on 4 year-old Macaque Rh. monkeys. Each cohort consisted of 3 animals. […] The results of the experiments were evaluated clinically: by the presence or absence of urination from the ureterocutaneostoma.\nAfter intravenous anesthesia with Ketalar®, an extraperitoneal access to the left kidney was performed through layer by layer cuts to the left lumbar region. The kidney was excised from the surrounding tissues. A clamp was applied to the vessel limb; the artery, the vein and the ureter each were prepared for anastomosis separately. The kidney was excised and transferred for hypothermal conservation in Collins' solution.\nThe donor kidney was transplanted into the recipient. […] anastomosis was performed: the graft arteries and veins attached to the appropriate recipient kidney vessels through plastic tubes. The kidney having been resuscitated by in blood flow, acquired the normal color and turgor. Additional hemostasis in the wound was performed. Ureterocutaneostomy was performed, which was followed by applying layer-upon-layer sutures on the wound and its aseptic dressing.\nThe monkeys were narcotized by means of the intravenous anesthesia with Ketalar® and subjected to medial laparotomy from the xiphoid down to the pubic joint. Access to the left Kidney was made extraperitoneally. The kidney was teased from the surrounding tissues. A clamp was put on the vessel limb; the artery, the vein and the ureter were dressed separately; the kidney was cut and transferred for hypothermal conservation in Collins' solution.\nThe internal iliac artery and the external iliac vein were extracted extra-peritoneally, immobilized and prepared for anastomosis. The donor kidney was transferred to the recipient. Vessel anastomosis was performed: the graft arteries were anastomosed with the internal iliac artery according to the end-to-end method and the graft veins were anastomosed with the external iliac vein according to the end-to-side method. The kidney having been engaged in blood flow, acquired a normal color and turgor. Bleeding on the line of the arterial anastomosis was stopped by making additional sutures. Ureterocutaneostomy was performed. The abdominal cavity was lavaged with the solution of disodium carbenicillin. Layer-upon-layer sutures on the wound were applied. Aseptic dressing was performed.\n(§6) During our experiments we have divided monkeys into two groups, three monkeys to each group. For the first group (2'-5')A2 Ar-epoxy was administered intravenously at concentration of 50 μg/kg two days before the operation and at the second, sixth, and twelfth day after the operation and then every sixth day. […] After transplantation kidney functions were restored within 10 hours.\n(§7) The administration schedule of (2'-5')A2 Ar-epoxy was modified slightly for the second group of monkeys. The preparation was injected two days before the operation and every other day at a concentration of 50 μg/kg during the entire post-transplantation period. […] The number of T-helpers dropped correspondingly from 37% to 7%. […] During the entire postoperative period, this activity tendency continues."}, "T-killers and T-helpers": {"test_system": "T-killers and T-helpers", "assay": "Immunosuppressive activity in vivo in monkeys", "parameters": "species or system Macaque Rh. monkeys", "description": "as §1, §2, §3, §4"}, "[3]": {"test_system": "T-helper and T-killer cells", "assay": "T-helper and T-killer cells in monkeys after kidney transplantation", "type": "in vivo, Macaque Rh. monkeys", "settings": "50 μg/kg IV every 48 hours; first two post-surgical weeks", "description": "as §5, §6, §7"}},
  "note": "Entries after “also recorded” stand apart in the source; their conditions may differ.",
  "data": [
    {"substance": "Adenylyl (2'-5')adenylyl (2'-5')-9-(2,3-anhydro-β-D-ribofuranosyl) adenine disodium salt [(2'-5')A2 Ar-epoxy]", "values": [
      {"measurement": "T-helpers", "setting": "T-helpers; single IV 25 μg/kg, day 0 (baseline)", "value": 16, "unit": "%"},
      {"measurement": "T-helpers", "setting": "T-helpers; single IV 25 μg/kg, day 1", "value": 20, "unit": "%"},
      {"measurement": "T-helpers", "setting": "T-helpers; single IV 25 μg/kg, day 2", "value": 10, "unit": "%"},
      {"measurement": "T-helpers", "setting": "T-helpers; single IV 25 μg/kg, day 4", "value": 4, "unit": "%"},
      {"measurement": "T-helpers", "setting": "T-helpers; single IV 25 μg/kg, day 8", "value": 5.3, "unit": "%"},
      {"measurement": "T-helpers", "setting": "T-helpers; single IV 25 μg/kg, day 12", "value": 7, "unit": "%"},
      {"measurement": "T-helpers", "setting": "T-helpers; single IV 25 μg/kg, day 21", "value": 23, "unit": "%"},
      {"measurement": "T-helpers", "setting": "T-helpers; single IV 50 μg/kg, day 0 (baseline)", "value": 30, "unit": "%"},
      {"measurement": "T-helpers", "setting": "T-helpers; single IV 50 μg/kg, day 1", "value": 29, "unit": "%"},
      {"measurement": "T-helpers", "setting": "T-helpers; single IV 50 μg/kg, day 2", "value": 15, "unit": "%"},
      {"measurement": "T-helpers", "setting": "T-helpers; single IV 50 μg/kg, day 4", "value": 1.2, "unit": "%"},
      {"measurement": "T-helpers", "setting": "T-helpers; single IV 50 μg/kg, day 8", "value": 5.0, "unit": "%"},
      {"measurement": "T-helpers", "setting": "T-helpers; single IV 50 μg/kg, day 12", "value": 7.0, "unit": "%"},
      {"measurement": "T-helpers", "setting": "T-helpers; single IV 50 μg/kg, day 21", "value": 30.6, "unit": "%"},
      {"measurement": "effect on T-suppressors, in words", "setting": "T-suppressors [1]; 25 and 50 μg/kg IV", "value": "suppresses the number of T-suppressor cells"},
      {"measurement": "T-suppressor", "setting": "T-suppressors [1]; day 0 (baseline)", "value": 47, "unit": "%"},
      {"measurement": "T-suppressor", "setting": "T-suppressors [1]; day 1", "value": 40, "unit": "%"},
      {"measurement": "T-suppressor", "setting": "T-suppressors [1]; day 2", "value": 21, "unit": "%"},
      {"measurement": "T-suppressor", "setting": "T-suppressors [1]; day 4", "value": 11, "unit": "%"},
      {"measurement": "T-suppressor", "setting": "T-suppressors [1]; day 8", "value": 11, "unit": "%"},
      {"measurement": "T-suppressor", "setting": "T-suppressors [1]; day 12", "value": 14, "unit": "%"},
      {"measurement": "T-suppressor", "setting": "T-suppressors [1]; day 21", "value": 46, "unit": "%"},
      {"measurement": "T-suppressors", "setting": "T-suppressors [1]; day 0 (baseline)", "value": 43, "unit": "%"},
      {"measurement": "T-suppressors", "setting": "T-suppressors [1]; day 1", "value": 31, "unit": "%"},
      {"measurement": "T-suppressors", "setting": "T-suppressors [1]; day 2", "value": 19, "unit": "%"},
      {"measurement": "T-suppressors", "setting": "T-suppressors [1]; day 4", "value": 12, "unit": "%"},
      {"measurement": "T-suppressors", "setting": "T-suppressors [1]; day 8", "value": 7.4, "unit": "%"},
      {"measurement": "T-suppressors", "setting": "T-suppressors [1]; day 12", "value": 13, "unit": "%"},
      {"measurement": "T-suppressors", "setting": "T-suppressors [1]; day 21", "value": 44, "unit": "%"},
      {"measurement": "T-suppress", "setting": "T-suppressors [2]; day 1 post-op.", "value": 40.6, "unit": "%"},
      {"measurement": "T-suppress", "setting": "T-suppressors [2]; day 5 post-op.", "value": 44, "unit": "%"},
      {"measurement": "T-suppress", "setting": "T-suppressors [2]; day 8 post-op.", "value": 47, "unit": "%"},
      {"measurement": "T-suppress", "setting": "T-suppressors [2]; day 13 post-op.", "value": 47.7, "unit": "%"},
      {"measurement": "T-suppress", "setting": "T-suppressors [2]; day 18 post-op.", "value": 57.5, "unit": "%"},
      {"measurement": "effect on T-suppressors in transplanted animals, in words", "setting": "T-suppressors [2]; post-transplantation, 50 μg/kg, disodium salt", "value": "stimulates the number of T-suppressor cells in transplanted monkeys; also recorded: stimulates somewhat the number of T-suppressors"},
      {"measurement": "quantity of T-suppressors", "setting": "T-suppressors [2]; second group, 50 μg/kg every other day, 7 days after surgery, presurgical 44%", "value": 49, "unit": "%"},
      {"measurement": "immunosuppressive activity, in words", "setting": "T-killers and T-helpers; monkeys, IV, disodium salt", "value": "suppresses significantly the number of T-lymphocytes in blood after only 48 hours; also recorded: strong immunosuppressive activity specifically against T-killers and T-helpers; also recorded: suppressed more actively the number of T-killer and T-helpers"},
      {"measurement": "increase of the quantity of the subpopulation of T-helpers and T-killers", "setting": "T-killers and T-helpers; single IV injection (Table 10 experiment, 500 μg/kg)", "value": "about 50%"},
      {"measurement": "suppression of the number of T-killers and T-helpers", "setting": "T-killers and T-helpers; single IV injection, 48 hours, monkeys", "value": 50, "unit": "%"},
      {"measurement": "retained level of T-helper and T-killer cells relative to normal value", "setting": "[3]", "value": 30, "unit": "%"}
    ]}
  ]
}
